Assay results taken from patent US20250339360A1, “COSMETIC COMPOSITIONS COMPRISING RETINOIDS AND MOISTURIZERS AND METHODS FOR STABLIZING RETINOIDS” (ELC Management LLC, priority 2024, published 2025).

Assay: Retinoid storage stability in stability chamber, hydroxypinacolone retinoate analysed by UPLC/UV-VIS at 360 nm
Format: physicochemical
Conditions: 6-month testing period, 25° C. and 40° C., within measurement accuracy
Method: The above samples were tested under two sets of temperature conditions. Each sample was placed in a stability chamber maintained at either room temperature (25° C.±2° C.) or accelerated (elevated) temperature (40° C.±2° C.). Each stability chamber was maintained at a relative humidity of 60%+5%. Stability of the retinoid was monitored at various time points: initially, after one month, after two months, after three months, and after six months. Assessment of the retinoid stability was conducted by removing a sample from the stability chamber and analyzing for hydroxypinacolone retinoate by UPLC/UV-VIS (Waters ACQUITY UPLC H-Class PLUS System with a photodiode array (PDA) detector). A wavelength of 360 nm was used for analyses. The measured concentrations were determined with a measurement accuracy of about +10%. The initial and subsequent concentrations are believed to deviate from the expected 0.1 wt % due to some initial degradation of the stock hydroxypinacolone retinoate.

With CC1=C(/C=C/C(C)=C/C=C/C(C)=C/C(=O)OCC(=O)C(C)(C)C)C(C)(C)CCC1 [hydroxypinacolone retinoate] the “Hydroxypinacolone retinoate concentration over the testing period” value was “remained essentially constant”.
